Assay results as given in patent US20080206374A1 (priority 2003, published 2008).
Where a name gives a salt, the structure may show the parent alone. Marks after values point to notes of the source that are not given here.

Tests used:
[1] = tested on: experimental acute myocardial ischemia of dogs; experiment: experimental acute myocardial ischemia and myocardial infarction of anesthetized dogs (coronary artery ligature); type: in vivo
Method: The experimental medicaments were prepared with physiological saline to the same volume (50 ml), and injected through femoral vein at a speed of 5 ml/min with the computer minim syringe pump (Type AJ-5803, Shanghai).
The animals were anaesthetized with pentobarbital sodium (30 mg/kg, i.v), and connected with an electric respirator after tracheal intubation. The chest was opened in the position of the 4th left rib to expose the heart. The pericardium was cut out to make a pericardial bed. The laevorotatory branch of coronary artery was separated and a probe of an electromagnetic flowmeter (Type MF-1100) was placed in to measure the blood flow of coronary artery. The middle section of anterior descending branch of coronary artery was separated and a thread was put through for ligature to make a model of experimental acute myocardium myocardial ischemia. A multipoint fixed epicardium electrode was sewed up and connected with a multirunning physiological recorder (Type RM-6100, Japan Photoelectricity) to display and record the electrocardiogram of epicardium^<1>. The coronary artery was ligated for 15 minutes and recorded as a control value before medicaments administration. The experimental medicaments or physiological saline was injected through the femoral vein. At […] 15, 30, 45, 60, 90, 120, and 180 minutes after medicament administration, 30 measuring points of the epicardium electrocardiogram were recorded. The rising S-T section that is more than 2 mv was taken as a judgment standard to calculate the degree of myocardial ischemia (total mv number of the rising S-T section Σ-ST) and the range of myocardial ischemia (total point number of the rising S-T section N-ST). After intubation through the […] into the coronary vein sinus, the blood oxygen content of coronary vein was measured by a blood oxygen instrument (Type AVL912, Swiss) while the blood samples were taken before ischemia, ischemia 15 min (before administration), at 15, 30, 60, 120, and 180 minutes after medicament administration. Then the animal was intubated into the carotid to measure the blood oxygen content of artery. It was calculated together with the blood flow of coronary artery to measure the myocardial oxygen consumption:
Myocardial oxygen consumption=(blood oxygen content of artery−blood oxygen content of coronary vein)×blood flow of coronary artery/100.
The blood samples were taken at the above-mentioned time points, and then serum creatine phosphate kinase (CK) and lactic dehydrogenase (LDH) were measured with a full-automatic biochemical analyzer (Type RA-1000, USA). And ET, TXB2 and 6-Keto-PGF1 were measured with the Radioimmuno-method and with a full-automatic γ counter (Type FT-630G, Beijing).
When recording was finished at 180 minutes after medicament administration, the heart was taken out immediately, washed with physiological saline and weighed as a whole. Under the ligature line of the heart, the ventricle was cut evenly into 5 pieces parallel to the coronary sulcus. Then the pieces were placed in the N-BT solution and stained at the room temperature for 15 minutes. The infarcted area (N-BT non-stained area) and the non-infarcted area (N-BT stained area) on the lateral sides of each piece of myocardium were measured with a Multimedia Color Pathological Image Analyzing System (Type MPIAS-500, Beijing) The area of each piece of myocardium, the total area of ventricle and the area of the infarcted section were calculated. The percentage of the infarcted area over the ventricle and that over total heart were calculated.
The experimental result was processed statistically and its significance was tested with t-Test.

[2] = tested on: normally anaesthetized dogs; experiment: cardiac hemodynamics and cardiac oxygen consumption of dogs; type: in vivo
Method: The experimental medicaments were prepared to the same volume (50 ml) with physiological saline, and injected through femoral vein at a speed of 5 ml/min by the computer minim syringe pump (Type AJ-5803, Shanghai).
The animals were anaesthetized intravenously with pentobarbital sodium (30 mg/kg, i.v), and connected with an electric respirator after tracheal intubation. The chests were opened in the position of the 4th left rib to expose the heart. The pericardium was cut to make a pericardial bed. The laevorotatory branch of coronary artery and the root of aorta were separated and a probe of an electromagnetic flowmeter (Type MF-1100) was placed in to measure the blood flow of coronary artery and cardiac output. The tip of left ventricle was intubated and connected with a pressure energy transducer (MPU-0.5A). The internal pressure of left ventricle was measured with a carrier amplifier (AG-601G), and the maximal ascending rate (dp/dtmax) of the internal pressure of left ventricle was measured with a differentiator (ED-601G). The animals were intubated through the external jugular vein into the coronary vein sinus and also intubated through the carotid. The blood oxygen contents of coronary vein sinus and artery were measured using a blood oxygen instrument (Type AVL912, Swiss) to calculate the myocardial oxygen consumption. Then the femoral artery was intubated to measure the blood pressure of artery. And then with the Standard Limb Lead II of electrocardiogram, the heart rate and the related parameters of electrocardiogram were calculated. With the formula, other indexes of hemodynamics were calculated: cardiac stroke output, oxygen consumption index, cardiac index, resistance of coronary artery, total peripheral resistance and oxygen utility, etc. All the above-mentioned indexes were recorded by a multirunning physiological recorder (Type RM-6000, Japan Photoelectricity) synchronously.
After the operation and the observed indexes being stable, the values before medicament were recorded, and the experimental medicaments were then administered. The values were recorded at 5 minutes of the middle of the process of administration, immediately after, and 1, 3, 5, 10, 15, 30, and 60 minutes after administered medicaments. All the measured indexes and derived parameters were processed statistically. The self-comparisons of the actual measurement values within different time periods after and before administered medicaments were made. Using the t-Test, the changed rate percentages were compared to show the significance between the groups.

[3] = tested on: myocardial ischemia reperfusion injury of rats; experiment: myocardial infarction caused by ischemia reperfusion; type: in vivo; conditions: 1.0 mg/kg
Method: The medicaments were diluted to desired concentration with physiological saline. The volume of administered medicament was 4 ml/kg. And the medicaments were given through the left femoral vein.
The animals were anaesthetized by pentobarbital sodium (45 mg/kg) through abdominal cavity and fixed in backstroke position. […] The tracheas were cut open, the trachea cannulas were inserted, and tracheas were connected with a respirometer (Type SC-3, Shanghai) for artificial respiration (32/min, with a respiration ratio of 1:3). The 3rd-5th ribs were cut off after opening the chest, and the pericardiums were opened to expose the heart. A suture (suture No. 0) was put through the root of left anterior descending branch of coronary artery for ligature. After the suture being put through stably for 10 minutes, a plastic concave pipe was placed parallel with the blood vessel, which was then ligated (eliminating the ones without changes of ST and T-wave). The experimental medicaments were administered. After 40 minutes, the ligature suture was cut off along the groove to trigger the reperfusion of the anterior descending branch. The chest was then seamed and independent respiration was recovered.
The bloode samples were taken from the ventral aorta to measure the serum SOD and MDA contents after 2 hours of the ligature. The heart was sliced into 5 pieces under heart ligature and was stained by N-BT. Using a Multimedia Pathological Color Image Analyzing System (Type MPIAS-500, Beijing), the areas of the normal myocardiums and the myocardial infraction were calculated. The degree of myocardial infarction was observed. And the experimental results were statistically analyzed (t-Test).

[4] = tested on: acute lung injury caused by the lipopolysaccharide; experiment: LPS acute lung injury (ALI) model; type: in vivo, Wistar rats
Method: And each of the modeling group, the LPS+DEX Group and LPS+SQ Group was again divided into 3 time phasing groups, that is, a one-hour group, a two-hour group, and a four-hour group. There are 10 groups in total, 6 […] per group in this experiment.
The 18 rats of the LPS+DEX Group were injected abdominally with 50 mg/kg Dexamethasone 2 hours before modeling. The 18 rats of the LPS+NS Group were injected with physiological saline 2 hours before modeling. Except for the normal Control group, all the three above-mentioned groups were injected with LPS (4 mg/kg) in the caudal vein.
After all the animals being anaesthetized with chloral hydrate through abdominal injection at the determined time phasing point, 2 ml blood was sampled from the carotid, and centrifuged at 800 gr/min for 8 minutes. The supernatant was extracted and placed at −20° C. in a refrigerator for future usage. The chest was opened and the lower lobes of the right lung were sampled They were placed in the EP tubes treated with DEPC solution and immediately put at −70° C. in a refrigerator for the total RNA extraction. The upper lobes of the right lung were sampled and dipped in 10% formaldehyde solution to fix. The left lungs were taken for the ratio of wet/dry weight measurement.
4. At the corresponding timing point, the animal lung tissues were taken and observed with human eyes and under the microscope using HE Staining Method. The ratio of tissues wetdry weight was also measured.

[5] = influence upon the lethal effect of MTX; type: in vivo, mice; conditions: MTX 22 mg/kg i.p.; composition 0.2 ml i.p. daily for eight days
Method: 2) The mice were divided into two groups and inoculated the tumor cells according to the method above. […] On the 4th day of the administration, the mice were inoculated tumor cell and intraperitoneally injected 22 mg/kg aqueous solution of MTX after 6 hours of inoculation. Within 10 days after MTX injection, the death rate of animals was observed and the survival rates of the two groups of animals were compared.

[6] = Dose/kg 0.5 mg, femoral vein, 180 minutes, N-BT staining
[7] = Herbesser Injection, femoral vein
[8] = serum after 2 hours of the ligature
[9] = LPS 4 mg/kg, DEX 50 mg/kg 2 hours before, SQ 2 ml daily 1 week before

CCCCC[C@H](O)/C=C/[C@@H]1[C@@H](CC(=O)CCCCC(=O)O)[C@@H](O)C[C@H]1O [Composition 6-Keto-PGF1, 6-keto-prostaglandin F1α]
myocardial oxygen consumption (in words) ([1]; 15 minutes after given): obviously reduced
cardiac stroke output (in words) ([2]; dog, in vivo): markedly increased the cardiac stroke output
resistance of outer periphery (in words) ([2]; dog, in vivo): reduced the resistance of outer periphery

COc1ccc([C@@H]2Sc3ccccc3N(CCN(C)C)C(=O)[C@@H]2OC(C)=O)cc1 [Herbesser, Diltiazem Hydrochloride]
Infarcted Area [1, 6]: 281.30 ± 159.9*** mm^2
Infarcted Area/heart [1, 6]: 2.27 ± 0.73
Infarcted Area/ventricle [1, 6]: 7.44 ± 2.61
increasing activity of serum CK and LDH caused by myocardial ischemia and infarction (in words) ([1]; Herbesser, composition 2.4 g crude drug/kg, P<0.05 vs physiological saline): significantly inhibited
blood flow of coronary artery (in words) ([1]; after ligature of the coronary artery): evident effect of increasing blood flow of coronary artery
ET activity in plasma caused by myocardial ischemia and infarction (in words) ([1]; dog, in vivo): obvious inhibiting effect on the ET activity
blood oxygen content of vein sinus (in words) ([1]; no statistical meaning): effect trend of increasing blood oxygen content of vein sinus
blood flow and resistance of coronary artery (in words) ([2]; Herbesser Injection): markedly increased the blood flow and the resistance of coronary artery
arterial blood pressure (in words) [2, 7]: obvious effect of reducing blood pressure
heart rate (in words) [2, 7]: slowing down heart rate
Infarcted Area/heart ([3]; left femoral vein): 16.6 ± 2.6
Infarcted Area/ventricle % ([3]; left femoral vein): 21.6 ± 4.3 %
The area of myocardial infraction ([3]; left femoral vein): 61.72 ± 9.68** mm^2
Weight of Infarcted Area ([3]; left femoral vein): 0.154 ± 0.027 g
MDA content of blood serum [3, 8]: 2.35 ± 0.07 µmol/L
SOD content of blood serum [3, 8]: 660.9 ± 159.7 ng/mL

C[C@@H]1C[C@H]2[C@@H]3CCC4=CC(=O)C=C[C@]4(C)[C@@]3(F)[C@@H](O)C[C@]2(C)[C@@]1(O)C(=O)CO [LPS + DEX, Dexamethasone]
Pathological Classification of lung injury: cases Light, 1-hour ([4]; LPS 4 mg/kg caudal vein, DEX 50 mg/kg abdominally 2 hours before, SQ 2 ml abdominally daily 1 week before): 6
Lung W/D Ratio, 1 h [4, 9]: 4.82 ± 0.23*Δ
Lung W/D Ratio, 2 h [4, 9]: 4.59 ± 0.19*Δ#
Lung W/D Ratio, 4 h [4, 9]: 4.57 ± 0.10*Δ#
Pathological Classification of lung injury: cases Light, 2-hour [4, 9]: 4
Pathological Classification of lung injury: cases Light, 4-hour [4, 9]: 6
Pathological Classification of lung injury: cases Middle, 1-hour [4, 9]: 0
Pathological Classification of lung injury: cases Middle, 2-hour [4, 9]: 2
Pathological Classification of lung injury: cases Middle, 4-hour [4, 9]: 0
Pathological Classification of lung injury: cases Severe, 1-hour [4, 9]: 0
Pathological Classification of lung injury: cases Severe, 2-hour [4, 9]: 0
Pathological Classification of lung injury: cases Severe, 4-hour [4, 9]: 0
symptoms (tachypnea, lips cyanosis, mental wilting) after LPS (in words) ([4]; compared with LPS+NS Group): relatively mild
general observation of lung tissues (in words) ([4]; same time phasing points, in comparison to Group LPS+NS): mitigated to different extent

CN(Cc1cnc2nc(N)nc(N)c2n1)c1ccc(C(=O)N[C@@H](CCC(=O)O)C(=O)O)cc1 [MTX, Methotrexate]
Number of Dead Animal after administered MTX, 4th day [5]: 1
Number of Dead Animal after administered MTX, 5th day [5]: 7
Number of Dead Animal after administered MTX, 6th day [5]: 3
Number of Dead Animal after administered MTX, 7th day [5]: 6
Survival Number after 10 days [5]: 4
Survival Rate % after 10 days [5]: 19.04%
